Data on ten compounds can be found in US12605452B2, “Compounds that degrade kinases and uses thereof” (Regents of the University of Minnesota, priority 2019, dated 2026).

Structures are written as SMILES.

Data set [1] deals with T1, Aurora-A (Homo sapiens, UniProt O14965).
T1 sequence (O14965 1-403): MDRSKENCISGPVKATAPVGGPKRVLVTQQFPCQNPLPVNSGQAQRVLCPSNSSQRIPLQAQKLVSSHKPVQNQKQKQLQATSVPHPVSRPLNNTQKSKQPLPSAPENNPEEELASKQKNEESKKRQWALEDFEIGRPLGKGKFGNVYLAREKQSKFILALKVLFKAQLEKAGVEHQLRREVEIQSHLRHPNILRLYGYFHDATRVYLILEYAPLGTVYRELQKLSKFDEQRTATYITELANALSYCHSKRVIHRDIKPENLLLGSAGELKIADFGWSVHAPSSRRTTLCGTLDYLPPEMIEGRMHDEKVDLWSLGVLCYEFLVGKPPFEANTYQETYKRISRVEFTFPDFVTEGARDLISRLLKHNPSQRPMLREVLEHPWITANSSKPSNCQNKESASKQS
Briefly: in vitro kinase binding, Aurora-A.

The target in the next data set is CDK4-CyclinD1 (Homo sapiens, UniProt P11802). Briefly: in vitro kinase binding, CDK4-CyclinD1.
Sequence of CDK4-CyclinD1 (P11802 whole entry): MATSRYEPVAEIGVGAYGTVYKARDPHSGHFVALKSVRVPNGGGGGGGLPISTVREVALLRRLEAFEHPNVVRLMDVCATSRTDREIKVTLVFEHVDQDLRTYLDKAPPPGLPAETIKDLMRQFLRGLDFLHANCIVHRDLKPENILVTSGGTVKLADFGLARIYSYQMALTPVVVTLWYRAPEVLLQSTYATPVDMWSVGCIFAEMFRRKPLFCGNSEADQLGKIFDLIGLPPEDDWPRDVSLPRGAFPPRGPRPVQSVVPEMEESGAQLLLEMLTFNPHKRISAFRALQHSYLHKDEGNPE
Sequence of CDK4-CyclinD1 (P24385 whole entry partner): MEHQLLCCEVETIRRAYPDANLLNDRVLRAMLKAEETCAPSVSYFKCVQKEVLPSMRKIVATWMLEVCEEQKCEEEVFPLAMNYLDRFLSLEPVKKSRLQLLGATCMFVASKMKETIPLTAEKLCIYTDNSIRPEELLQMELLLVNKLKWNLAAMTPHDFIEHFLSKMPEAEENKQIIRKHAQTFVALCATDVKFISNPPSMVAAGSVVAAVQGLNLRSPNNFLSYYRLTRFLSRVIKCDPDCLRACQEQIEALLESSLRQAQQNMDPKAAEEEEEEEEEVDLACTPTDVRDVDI
Data set [2] concerns the target T1, Aurora-A. Nature of the data set: immunoblotting, degradation of Aurora-A in MCF-7 cells. On the set-up: endogenous in cells; host or cells: MCF-7. The data set is classed as cell-based. On the procedure:
(§1) MCF-7 cells were cultured in complete Dulbecco's modified Eagle medium (DMEM) supplemented with 10% (vol/vol) heat-inactivated fetal bovine serum (FBS), 100 U/ml penicillin and 100 μg/ml streptomycin. HCC38 cells were cultured in RPMI medium with 10% FBS, 100 U/ml penicillin and 100 μg/ml streptomycin. Huh7 cells were cultured in DMEM medium with 10% FBS, 100 U/ml penicillin and 100 μg/ml streptomycin supplemented with 1% MEM non-essential amino acids (SIGMA M7145). IMR-32 and SK-N-BE(2) cells were cultured in Eagle's Minimum Essential Medium (EMEM) with 10% FBS, 100 U/ml penicillin and 100 μg/ml streptomycin. All the cell lines were maintained in a humidified incubator at 37° C. and 5% CO2.
(§2) Cells were treated with 13 and other compounds at indicated concentrations and incubation time. Cells were gently rinsed once with ice-cold PBS and then lysed in radioimmnuoprecipitation assay (RIPA) lysis buffer (50 mM Tris-HCl pH 7.4, 150 mM NaCl, 1% NP-40, 0.5% sodium deoxycholate, 0.1% SDS, 5 mM EDTA, 1 mM EGTA) supplemented with 1% protease inhibitor cocktail (Roche cOmplete) and 1% phosphatase inhibitor cocktail (PhosSTOP). Cell lysates were incubated on ice for 15 mins and then kept at −80° C. before further use. The lysates were thawed on ice and the supernatants were collected after centrifugation (@11,000 rpm) for 15 min at 4° C. The protein concentration was determined using the Pierce BCA protein Assay kit and normalized before the samples were reduced in […] sample buffer and denatured at 95° C. in a heated block for 10 mins. An equal amount of protein samples (10-30 μg per lane) were resolved using 4-20% Tris-glycine gels and transferred onto PVDF blotting membranes. Primary antibodies CDK4 (DCS-35, 1:2000), N-Myc (B8.4.B, 1:5000), p21 (F-5, 1:500), p53 (DO-1, 1:1000), Aurora-A (1G4, 1:1000), β-actin (A1978, 1:2000) were used for immunoblotting. The images were detected using Li-Cor Odyssey Fc imaging system and the immunoblots were quantified by densitometry using ImageJ software.
In general terms: Immunoblotting shows a protein as a band on a membrane.

A further data set has as its system p53 and p21. Nature of the data set: immunoblotting, abundance of downstream signaling proteins in MCF-7 cells. The data set is classed as cell-based. To be noted: 4 hours and 24 hours. On the procedure:
as §1
(§3) Cells were treated with 13 and other compounds at indicated concentrations and incubation time. […] The protein concentration was determined using the Pierce BCA protein Assay kit and normalized before the samples were reduced in […] sample buffer and denatured at 95° C. in a heated block for 10 mins. […] The images were detected using Li-Cor Odyssey Fc imaging system and the immunoblots were quantified by densitometry using ImageJ software.

Data set [3] relates to IMR-32 and SK-N-BE(2) cells. Nature of the data set: Alamar blue cellular viability assay, MYCN amplified neuroblastoma cells. It is filed as cell-based. As to conditions: 3 days. On the procedure: as §1
(§4) Cancer cells were seeded in media (50 μL) 24 h prior to treatment with compounds in 96-well plates. For MCF-7 and Huh7 cells, the seeding density is 2,500 cells/well; for HCC38, the density is 2,000 cells/well; and for IMR-32 and SK-N-BE(s), the density is 5,000 cells/well. Compounds were serially diluted in pre-warmed media and dosed to cells (final volume=100 μL; final DMSO concentration=0.5%). […] After 2 hours treatment period, the fluorescence of each well was read using a BioTek Synergy H1 plate reader. […]
(In general: Resazurin is reduced to fluorescent resorufin, in cell work by metabolically active cells.)

The target in another data set is T2, Aurora-A and N-Myc (Homo sapiens, UniProt O14965).
T2 construct: endogenous in cells; host or cells: SK-N-BE(2)
T2 sequence (O14965 1-403): T1 sequence (O14965 1-403)
Briefly: immunoblotting, dose-dependent degradation of Aurora-A and N-Myc in SK-N-BE(2) cells. The data set is classed as cell-based. As to conditions: for degradation of Aurora-A and N-Myc (in words): 24 hours, dose series. The method, then:
as §1, §2

Data set [4] concerns MCF-7, HCC38, Huh7, IMR-32 and SK-N-BE(2) cells. Nature of the data set: Alamar blue cellular viability assay, all tested cell lines. It is filed as cell-based. As to conditions: range over all tested cell lines; read-out: IC50, cytotoxicity. On the procedure: as §1, §4
For another data set, the system named is N-Myc. Briefly: immunoblotting, N-Myc depletion in MYCN amplified neuroblastoma cell lines. The data set is classed as cell-based. As to conditions: IMR-32 and SK-N-BE(2) cells, 0.5 μM, after 24 hours. The method, then: as §1, §3
Another data set deals with T3, CDK4 (Homo sapiens, UniProt P11802).
T3 construct: endogenous in cells; host or cells: MCF-7
T3 sequence (P11802 whole entry): as the sequence (P11802 whole entry) above
Nature of the data set: immunoblotting, degradation of CDK4 in MCF-7 cells. The data set is classed as cell-based. The method, then:
as §1, §2

The test system of data set [5] is MCF-7 breast cancer cells. Nature of the data set: cell cycle analysis using propidium iodide DNA staining. The data set is classed as cell-based. As to conditions: compound treatment for 48 hours.
The subject of a further data set is HCC38. Nature of the data set: Alamar blue cellular viability assay, HCC38. To be noted: HCC38, ribociclib-resistant, 5 days. The data set is classed as cell-based. On the procedure:
as §1, §4

A further data set concerns MCF-7 cells. Nature of the data set: Alamar blue cellular viability assay, MCF-7. The data set is classed as cell-based. The method, then:
as §1, §4

The test system of a further data set is Huh7. Nature of the data set: Alamar blue cellular viability assay, Huh7. The data set is classed as cell-based. To be noted: Huh7, ribociclib-resistant, 5 days. The method, then: as §1, §4
The test system of another data set is cyclin D1. Nature of the data set: immunoblotting, degradation of cyclin D1 in MCF-7 cells. The data set is classed as cell-based. On the procedure: as §1, §3
Data set [6] has as its system Cyclin D and CDK4 complexes. Briefly: Western blot, degradation of Cyclin D and CDK4 complexes in MCF-7 cells. As to conditions: MCF-7 breast cancer cells. The data set is classed as cell-based.

For orientation: Kd means the concentration at which binding is half-saturated. Low values mean a tighter complex, high ones a looser complex. As for `CNC(=O)c1ccc(Nc2ncc3cc(C(=O)N(C)C)n(C4CCCC4)c3n2)cc1` [Compound 11, 7-cyclopentyl-N,N-dimethyl-2-((4-(methylcarbamoyl)phenyl)amino)-7H-pyrrolo[2,3-d]pyrimidine-6-carboxamide], the figures for the Kd at Aurora-A [1] and at CDK4-CyclinD1 were 0.85 nM and 3 nM, respectively.

`CNC(=O)c1ccc(Nc2ncc3cc(C(=O)N(C)C)n(C4CCCC4)c3n2)nc1` [Compound 12, 7-cyclopentyl-N,N-dimethyl-2-((5-(methylcarbamoyl)pyridin-2-yl)amino)-7H-pyrrolo[2,3-d]pyrimidine-6-carboxamide]: the “binding affinity with Aurora-A (in words)” value (from here on “binding affinity”) on Aurora-A [1] is given as “significant decrease of binding affinity with Aurora-A”.

In general, Dmax refers to the greatest extent of degradation seen. What is called IC50 is the concentration that inhibits the measured activity by half. For `CN(C)C(=O)c1cc2cnc(Nc3ccc(C(=O)NCCCCCCOc4cccc5c4C(=O)N(C4CCC(=O)NC4=O)C5=O)cc3)nc2n1C1CCCC1` (stereo not drawn) [Compound 13, 7-cyclopentyl-2-((4-((6-((2-(2,6-dioxopiperidin-3-yl)-1,3-dioxoisoindolin-4-yl)oxy)hexyl)carbamoyl)phenyl)amino)-N,N-dimethyl-7H-pyrrolo[2,3-d]pyrimidine-6-carboxamide], at Aurora-A [2], the “degradation of Aurora-A (in words)” value was “rapidly and potently induce the degradation of Aurora-A”. At Aurora-A [2] (100 nM compound), the “half-life of Aurora-A” value came to 1.9 h. Moreover, the “degradation potency for Aurora-A at high concentration (hook effect)” value at Aurora-A [2] (2 μM) is “lower degradation potency”. Also, the DC50 on Aurora-A [2] (4 hours, read-out: DC50 (half-maximal degradation concentration) for Aurora-A) came to 20 nM. For the same compound, on Aurora-A [2] (MCF7, after 4 hours, read-out: Dmax (maximum degradation efficacy) for Aurora-A), the Dmax is about 94%. For the same compound, in the data set with p53 and p21, the “effect on p21 abundance” value is reported as “increased the abundance” and the “effect on p53” value is “significantly stabilized p53”. Further, the “binding affinity” value at Aurora-A [1] is given as “maintains its binding affinity to Aurora-A”. Also, the “cytotoxic potency compared to CD532” value in data set [3] is recorded as “more potent than CD532”. On Aurora-A and N-Myc, the “potency for depleting N-Myc protein compared to MLN8237 and CD532” value is “more potent”; the “degradation of Aurora-A and N-Myc (in words)” value was “induced the degradation of Aurora-A and N-Myc in a dose-dependent manner”. The IC50 in [4] lay within 18 to 135 nM. The “depletion of N-Myc” value in the data set on N-Myc was “almost complete depletion of N-Myc”. Further, the “degradation of CDK4 (in words)” value on CDK4 is on record as “no obvious degradation of CDK4 was observed”. Also, in [5], the cell cycle effect entry was “potent G2/M phase arrest”.

On to `CN(C)C(=O)c1cc2cnc(Nc3ccc(C(=O)NCCCCCCOc4cccc5c4C(=O)N(C4CCC(=O)NC4=O)C5=O)cn3)nc2n1C1CCCC1` (stereo not drawn) [Compound 14, 7-cyclopentyl-2-((5-((6-((2-(2,6-dioxopiperidin-3-yl)-1,3-dioxoisoindolin-4-yl)oxy)hexyl)carbamo-yl)pyridin-2-yl)amino)-N,N-dimethyl-7H-pyrrolo[2,3-d]pyrimidine-6-carboxamide], for which the Kd on Aurora-A [1] was 380 nM.

Turning to `CN(C)C(=O)c1cc2cnc(Nc3ccc(C(=O)NCCCCCCOc4cccc5c4C(=O)N(C4CCC(=O)N(C)C4=O)C5=O)cc3)nc2n1C1CCCC1` (stereo not drawn) [Compound 15, 7-cyclopentyl-N,N-dimethyl-2-((4-((6-((2-(1-methyl-2,6-dioxopiperidin-3-yl)-1,3-dioxoisoindolin-4-yl)oxy)hexyl)carbamoyl)phenyl)amino)-7H-pyrrolo[2,3-d]pyrimidine-6-carboxamide], the “potency shift from 13 (cytotoxicity)” value in the data set with HCC38 is given as 8.2 fold; in the data set on MCF-7 cells (MCF-7 cells, 5 days), 4,4 fold; in the data set on Huh7 it was 20.8 fold. In addition, the “binding affinity” value on Aurora-A [1] is on record as “maintains similar binding profile as the active form 13”. Besides, the “degradation of Aurora-A and N-Myc (in words)” value on Aurora-A and N-Myc is listed as “did not affect the protein abundance even at the highest test concentration”.

On to `CC(=O)c1c(C)c2cnc(Nc3ccc(C(=O)NCCCCCCOc4cccc5c4C(=O)N(C4CCC(=O)NC4=O)C5=O)cc3)nc2n(C2CCCC2)c1=O` (stereo not drawn) [Compound 16, 4-((6-acetyl-8-cyclopentyl-5-methyl-7-oxo-7,8-dihydropyrido[2,3-d]pyrimidin-2-yl)amino)-N-(6-((2-(2,6-dioxopiperidin-3-yl)-1,3-dioxoisoindolin-4-yl)oxy)hexyl)benzamide], for which the “degradation of Aurora-A (in words)” value on Aurora-A [2] is on record as “weakly active”. In addition, the “binding affinity” value on Aurora-A [1] is reported as “weak binding”. For the same compound, on CDK4-CyclinD1, the “binding to CDK4 (in words)” value is listed as “weak binding”. For the same compound, the “degradation of CDK4 (in words)” value at CDK4 was “weakly active”.

With `Cc1nc2c(F)cc(-c3nc(Nc4ccc(C(=O)NCCCCCCOc5cccc6c5C(=O)N(C5CCC(=O)NC5=O)C6=O)cc4)ncc3F)cc2n1C(C)C` (stereo not drawn) [Compound 17, N-(6-((2-(2,6-dioxopiperidin-3-yl)-1,3-dioxoisoindolin-4-yl)oxy)hexyl)-4-((5-fluoro-4-(4-fluoro-1-isopropyl-2-methyl-1H-benzo[d]imidazol-6-yl)pyrimidin-2-yl)amino)benzamide], the “degradation of Aurora-A (in words)” value on Aurora-A [2] is “strong potency”. The “binding affinity” value on Aurora-A [1] was “weak binding affinity”. Besides, the “degradation of cyclin D1 (in words)” value in the data set with cyclin D1 is given as “strong potency”. At CDK4-CyclinD1, this compound displayed a Kd of 23 nM. The “degradation of CDK4 (in words)” value on CDK4 was “strong potency”.

Consider `Cc1nc2c(F)cc(-c3nc(Nc4ccc(NC(=O)CCCCCCOc5cccc6c5C(=O)N(C5CCC(=O)NC5=O)C6=O)cc4)ncc3F)cc2n1C(C)C` (stereo not drawn) [Compound 18, 7-((2-(2,6-dioxopiperidin-3-yl)-1,3-dioxoisoindolin-4-yl)oxy)-N-(4-((5-fluoro-4-(4-fluoro-1-isopropyl-2-methyl-1H-benzo[d]imidazol-6-yl)pyrimidin-2-yl)amino)phenyl)heptanamide], for which the “cytotoxicity in MCF-7 cells (in words)” value in the data set on MCF-7 cells (palbociclib- and abemaciclib-analogue-based degraders) is on record as “the most potent compound”.

Take `CN(C)C(=O)c1cc2cnc(Nc3ccc(C(=O)NCCCCCCNc4cccc5c4C(=O)N(C4CCC(=O)NC4=O)C5=O)cc3)nc2n1C1CCCC1` (stereo not drawn) [Compound 22, 7-cyclopentyl-2-((4-((6-((2-(2,6-dioxopiperidin-3-yl)-1,3-dioxoisoindolin-4-yl)amino)hexyl)carbamoyl)-phenyl)amino)-N,N-dimethyl-7H-pyrrolo[2,3-d]pyrimidine-6-carboxamide]: the “degradation of Cyclin D and CDK4 complexes” value in data set [6] is “degrades Cyclin D and CDK4 complexes in a dose-dependent and time-dependent manner”.

`CN(C)C(=O)c1cc2cnc(Nc3ccc(N4CCNCC4)cn3)nc2n1C1CCCC1` [ribociclib, reference compound]: the cell cycle effect result in data set [5] was “induces G0/G1 arrest”.
